# Legend:
# [1] = Apparent solubility in phosphate buffer at pH 7.4; type: physicochemical; settings: aqueous buffer, kinetic from dmso stock, phosphate buffer pH 7.4, 25° C.
# Protocol: The compounds to be tested were prepared according to the method described. The control drug progesterone was purchased from Sigma. Phosphate buffer with pH 7.4 was prepared in our laboratory. Acetonitrile and methanol were purchased from Fisher. Other reagents were purchased from the market.
# 10 mM stock solution of substance to be tested and control drug progesterone was prepared with DMSO.
# 30 µL of 10 mM stock solution of substance to be tested was taken, and added to the corresponding position of the corresponding 96-well plate in the specified order. 970 µL of phosphate buffer (pH 7.4) was added to the corresponding vial in the sample plate. The experiment was performed in parallel duplicate. A stirring rod was added to each vial and a polytetrafluoroethylene/silicone stopper was covered thereon. The sample tray was then placed in an Eppendorf Thermomixer Comfort and shaken at 1100 rpm for 2 hours at 25° C. After 2 hours, the stopper was removed, and the stirring rod was sucked away by a large magnet, then the sample was transferred from the sample plate to the filter plate. A vacuum pump was used to generate negative pressure and the sample was filtered. 5 µL of the filtrate was transferred to a new sample plate, and then 5 µL of DMSO and 490 µL of 50% ACN(IS).H2O (internal standard acetonitrile : water = 1 : 1) were added. Depending on the peak shape, it may be possible to dilute the sample diluent with a certain proportion of 50% ACN(IS).H2O for better peak shape. […]
# The loading plate was placed in the loading tray of the autosampler, and the sample was evaluated by liquid chromatography-mass spectrometry analysis.
# All calculations are performed via Microsoft Excel. Analysis and quantification of the sample filtrate was accomplished by using the liquid chromatography-mass spectrometry to characterize and quantify the peaks of the standards with known concentrations. The apparent solubility of the compounds of the present invention in phosphate buffer (PH 7.4) was calculated.
# [2] = Plasma protein binding rate, equilibrium dialysis, mouse plasma; type: in vitro ADME; settings: pH 7.4, CD-1 mouse plasma, 6 hours dialysis
# Protocol: (§1) The protein binding rate of the compounds of the present invention in the plasma of five species (human, monkey, dog, rat and mouse) was determined by the following test method.
# (§2) • 1. Human plasma (BioIVT), beagle dog plasma (BioIVT), SD rat plasma (BioIVT), CD-1 mouse plasma (BioIVT); • 2. 96-well equilibrium dialysis plate (HTDialysis LLC, Gales Ferry, CT, HTD96B), equilibrium dialysis membrane (MWCO 12-14 K, #1101); • 3. Positive control compound warfarin; • 4. ABI QTrap 5500 liquid chromatography-mass spectrometry.
# (§3) 1. Preparation of a buffer with a concentration of 100 mM sodium phosphate and 150 mM NaCl: an alkaline solution with a concentration of 14.2 g/L Na2HPO4 and 8.77 g/L NaCl was prepared with ultrapure water, and an acidic solution with a concentration of 12.0 g/L NaH2PO4 and 8.77 g/L NaCl was prepared with ultrapure water. The alkaline solution was titrated with the acidic solution to pH 7.4 to prepare a buffer with a concentration of 100 mM sodium phosphate and 150 mM NaCl.
# (§4) 2. Preparation of dialysis membrane: the dialysis membrane was soaked in ultrapure water for 60 minutes to separate the membrane into two pieces, then soaked in 20% ethanol for 20 minutes, and finally soaked in the buffer used for dialysis for 20 minutes.
# (§5) 3. Preparation of plasma: the frozen plasma was quickly thawed at room temperature, then the plasma was centrifuged at 3,220 g at 4° C. for 10 min to remove clots, and the supernatant was collected into a new centrifuge tube. The pH of the plasma was measured and recorded, and the plasma with pH of 7-8 was used.
# (§6) 3. Preparation of compound-containing plasma samples: 10 mM stock solution of compounds of the present invention or positive control compounds were diluted with DMSO to obtain 200 µM working solution. […]
# (§7) The peak areas of the compounds on the buffer side and the plasma side were determined. […]
# (§8) All the data was calculated by the Microsoft Excel software. The plasma protein binding rate values of the compounds of the present invention were calculated.
# [3] = Plasma protein binding rate, equilibrium dialysis, monkey plasma; type: in vitro ADME; settings: pH 7.4, Cynomolgus monkey plasma, 6 hours dialysis
# Protocol: as §1, §2, §3, §4, §5, §6, §7, §8
Compound,solubility at 2 h [1],"fraction unbound at 6 h, 1 µM [2]","fraction unbound at 6 h, 1 µM [3]"
"C[C@@H]1Cc2c([nH]c3ccccc23)C(c2c(F)cc(N[C@H]3CCN(CCCF)C3)cc2F)N1CC(F)(F)F (stereo in doubt) [Example 4, (S)-N-(3,5-difluoro-4-((1S,3R)-3-methyl-2-(2,2,2-trifluoroethyl)-2,3,4,9-tetrahydro-1H-pyridino[3,4-b]indol-1-yl)phenyl)-1-(3-fluoropropyl)pyrrolidin-3-amine]",< 0.3 µM,0.002,0.002
"C[C@@H]1Cc2c([nH]c3ccccc23)C(c2c(F)cc(N[C@H]3CCN(CCCF)C3)cc2F)N1CC(F)(F)CO (stereo in doubt) [Example 7, 3-((1S,3R)-1-(2,6-difluoro-4-(((S)-1-(3-fluoropropyl)pyrrolidin-3-yl)amino)phenyl)-3-methyl-3,4-dihydro-1H-pyridino [3,4-b]indole-2(9H)-yl)-2,2-difluoropropane-1-ol]",4 µM,0.012,0.023
"C[C@@H]1Cc2c([nH]c3ccccc23)[C@@H](c2ccc(N[C@H]3CCN(CCCF)C3)cn2)N1CC(F)(F)F [Example 3, N-((S)-1-(3-fluoropropyl)pyrrolidin-3-yl)-6-((1S,3R)-3-methyl-2-(2,2,2-trifluoroethyl)-2,3,4,9-tetrahydro-1H-pyridino[3,4-b]indol-1-yl)pyridine-3-amine]",92 µM,0.019,0.022
